# Reference: patent US7517902B2, “Substituted indazoles, compositions containing the same, and the preparation and use thereof” (Aventis Pharma S.A., priority 2004, dated 2009)
# pIC50: −log10 of the molar value. Structures can show the parent of a compound that is named as a salt.
# Target: T1, Aurora2 (Homo sapiens, UniProt O14965)
# T1 construct: Aurora 2: whole recombinant protein comprising an N-terminal histidine tail; His tag (histidine tail) (N); made in house; host or cells: E. coli
# T1 sequence (O14965 1-403): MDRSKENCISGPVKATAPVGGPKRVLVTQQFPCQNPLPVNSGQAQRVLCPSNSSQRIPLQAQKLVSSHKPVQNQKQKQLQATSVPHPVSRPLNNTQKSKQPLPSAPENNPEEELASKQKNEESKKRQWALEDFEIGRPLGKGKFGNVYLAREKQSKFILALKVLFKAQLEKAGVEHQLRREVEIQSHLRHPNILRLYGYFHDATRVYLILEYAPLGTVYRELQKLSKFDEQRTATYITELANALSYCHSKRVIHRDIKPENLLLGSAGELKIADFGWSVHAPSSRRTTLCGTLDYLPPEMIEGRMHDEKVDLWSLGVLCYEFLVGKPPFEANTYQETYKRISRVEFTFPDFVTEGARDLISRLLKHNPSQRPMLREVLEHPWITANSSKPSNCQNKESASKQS
# Test: Aurora2 enzyme assay, NuMA substrate phosphorylation (Flashplate)
# Assay type: biochemical
# Details: read-out: IC 50 Aurora2
# Method in brief: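 Recombinant full-length N-His Aurora2 (E. coli), 10 nM, phosphorylates 500 nM His-NuMA fragment with 1 µM ATP plus [33P]ATP in Tris/HCl pH 7.5, NaCl, MgCl2, DTT, 37 °C, 30 min, on Ni-chelate Flashplates. Incorporated 33P counted by scintillation; percent inhibition versus enzyme control after background subtraction.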
row,SMILES,pIC50
1,"Nc1n[nH]c2cc(-c3ccc(NS(=O)(=O)c4cccc(Cl)c4Cl)cc3)ccc12 [Example 2, 1-[4-(3-Amino-1H-indazol-6-yl)phenyl]-2,3-dichlorobenzenesulfonamide hydrochloride]",6.70
2,"O=C(Nc1n[nH]c2cc(-c3ccc(NS(=O)(=O)c4cccc(Cl)c4Cl)cc3)ccc12)c1ccsc1 [Example 3, 3-Thiophenecarboxylic acid {6-[4-(2,3dichlorobenzenesulfonylamino)phenyl]-1H-indazol-3-yl}amide]",6.88
3,"O=C(Nc1n[nH]c2c(F)c(-c3ccc(NS(=O)(=O)c4cccc(Cl)c4Cl)cc3)ccc12)c1ccsc1 [Example 5, 3-Thiophenecarboxylic acid {6-[4-(2,3-dichlorobenzenesulfonylamino)-7-fluorophenyl]-1H-indazol-3-yl}amide]",7.43
4,"Nc1n[nH]c2c(F)c(-c3ccc(NS(=O)(=O)c4cccc(Cl)c4Cl)cc3)ccc12 [Example 8, 1-[4-(3-Amino-1H-indazol-6-yl)-7-fluorophenyl]-2,3-dichlorobenzenesulfonamide hydrochloride]",7.06
